From ChEMBL document CHEMBL1122535, “Mesoionic pyridazine ribonucleosides. A novel biologically active nucleoside metabolite” (1984)
Values after ≈ are worked out from the molar mass of the structure shown.

Key:
[1] = system: Escherichia coli; experiment: Minimum inhibitory concentration against Escherichia coli (EC) in Davis minimal media under Aerobic conditions(in vitro); type: functional
[2] = system: Escherichia coli; experiment: Minimum inhibitory concentration against Escherichia coli (EC) in Davis minimal media under Anaerobic conditions(in vitro); type: functional
[3] = system: Escherichia coli; experiment: Minimum inhibitory concentration against Escherichia coli (EC) in Davis minimal media under Anaerobic conditions(in vitro); No indication of toxicity; type: functional, organism-based
[4] = system: Escherichia coli; experiment: Minimum inhibitory concentration against Escherichia coli (EC) in Davis minimal media under aerobic conditions(in vitro); No indication of toxicity; type: functional, organism-based

Row | Compound | MIC [1] | MIC [2] | MIC [3] | MIC [4]
1 | [O-]c1n[n+]([C@@H]2O[C@H](CO)[C@@H](O)[C@H]2O)ccc1Cl | 0.2 µg/mL (≈ 0.761 µM) | 0.2 µg/mL (≈ 0.761 µM) | – | –
2 | CC(=O)OC[C@H]1O[C@@H]([n+]2ccc(C#N)c([O-])n2)[C@H](O)[C@@H]1O | 100 µg/mL (≈ 339 µM) | – | – | –
3 | N#Cc1cc[n+]([C@@H]2O[C@H](CO)[C@@H](O)[C@H]2O)nc1[O-] | 0.78 µg/mL (≈ 3.08 µM) | 3.1 µg/mL (≈ 12.2 µM) | – | –
4 | Nc1cc[n+]([C@@H]2O[C@H](CO)[C@@H](O)[C@H]2O)nc1[O-] | – | 100 µg/mL (≈ 411 µM) | – | –
5 | CC(=O)OC[C@H]1O[C@@H]([n+]2ccc(Cl)c([O-])n2)[C@H](O)[C@@H]1O | 25 µg/mL (≈ 82.1 µM) | 25 µg/mL (≈ 82.1 µM) | – | –
6 | N.[O-]c1n[n+]([C@@H]2O[C@H](CO)[C@@H](O)[C@H]2O)ccc1S | – | 100 µg/mL | – | –
7 | NC(=O)c1cc[n+]([C@@H]2O[C@H](CO)[C@@H](O)[C@H]2O)nc1[O-] | – | – | No indication of toxicity | No indication of toxicity
8 | COc1cc[n+]([C@@H]2O[C@H](CO)[C@@H](O)[C@H]2O)nc1[O-] | – | 100 µg/mL (≈ 387 µM) | – | –
